Experimental data published in the OligoGym collection.
Oligonucleotides are written 5' to 3', each unit as a sugar letter and its base; * is a phosphorothioate linkage, no mark a phosphodiester; rarer units and linkages stand in square brackets, end groups in braces. Plain capitals give the bases only. d = 2'-deoxy (DNA); r = 2'-OH (RNA)
Further: test concentration or dose not given here.

What follows are substances tested against UBE2S (assay: reporter assay of Huesken 2005). Conditions: siRNA.
“sense rCrCrArCrCrCrGrArUrGrGrCrArUrCrArArGrGdTdT / antisense rCrCrUrUrGrArUrGrCrCrArUrCrGrGrGrUrGrGdGdT” was tested, and the normalised inhibition (eCFP-eYFP dual reporter) was 47.2%. “sense rCrCrCrGrUrCrUrGrCrUrCrArCrArGrArGrArUdTdT / antisense rArUrCrUrCrUrGrUrGrArGrCrArGrArCrGrGrGdCdC” was tested, and the normalised inhibition (eCFP-eYFP dual reporter) was 70.1%. In the case of “sense rCrCrUrGrArGrGrGrGrArCrCrCrCrArUrArUrGdTdT / antisense rCrArUrArUrGrGrGrGrUrCrCrCrCrUrCrArGrGdGdC”, the normalised inhibition (eCFP-eYFP dual reporter) was 25.2%. With “sense rGrArGrUrCrUrGrCrArCrUrCrArArCrGrArGrGdTdT / antisense rCrCrUrCrGrUrUrGrArGrUrGrCrArGrArCrUrCdGdG” the normalised inhibition (eCFP-eYFP dual reporter) was 71.5%. “sense rArGrCrCrGrGrUrCrGrGrGrCrCrCrUrGrGrCrCdTdT / antisense rGrGrCrCrArGrGrGrCrCrCrGrArCrCrGrGrCrUdTdC” was tested, and the normalised inhibition (eCFP-eYFP dual reporter) was 43%. For “sense rGrGrCrUrArCrUrUrCrCrUrGrArCrCrArArGrAdTdT / antisense rUrCrUrUrGrGrUrCrArGrGrArArGrUrArGrCrCdCdT”, the normalised inhibition (eCFP-eYFP dual reporter) was 91.7%. Work on “sense rCrUrGrGrGrGrArArGrGrArCrUrUrCrCrCrUrGdTdT / antisense rCrArGrGrGrArArGrUrCrCrUrUrCrCrCrCrArGdCdA” yielded a normalised inhibition (eCFP-eYFP dual reporter) of 40.4%. Substance “sense rArCrCrCrGrArUrGrGrCrArUrCrArArGrGrUrCdTdT / antisense rGrArCrCrUrUrGrArUrGrCrCrArUrCrGrGrGrUdGdG” has a normalised inhibition (eCFP-eYFP dual reporter) of 66.4%. “sense rGrGrUrGrArCrGrArCrArCrUrGrArCrCrGrCrAdTdT / antisense rUrGrCrGrGrUrCrArGrUrGrUrCrGrUrCrArCrCdTdC” was tested, and the normalised inhibition (eCFP-eYFP dual reporter) was 88.7%. “sense rCrUrGrCrGrUrCrArArCrGrUrGrCrUrCrArArGdTdT / antisense rCrUrUrGrArGrCrArCrGrUrUrGrArCrGrCrArGdAdT” gave a normalised inhibition (eCFP-eYFP dual reporter) of 67.8%. For “sense rUrCrArCrCrArUrCrGrArGrGrGrCrCrCrUrGrAdTdT / antisense rUrCrArGrGrGrCrCrCrUrCrGrArUrGrGrUrGrAdCdC”, the normalised inhibition (eCFP-eYFP dual reporter) was 35.9%. Work on “sense rArGrGrGrCrCrGrArArGrCrCrGrGrUrCrGrGrGdTdT / antisense rCrCrCrGrArCrCrGrGrCrUrUrCrGrGrCrCrCrUdGdC” yielded a normalised inhibition (eCFP-eYFP dual reporter) of 49.1%. Work on “sense rGrCrUrGrGrGrGrArArGrGrArCrUrUrCrCrCrUdTdT / antisense rArGrGrGrArArGrUrCrCrUrUrCrCrCrCrArGrCdAdG” yielded a normalised inhibition (eCFP-eYFP dual reporter) of 53.9%. In the case of “sense rArUrCrUrUrCrCrArCrCrCrGrArArCrGrUrGrGdTdT / antisense rCrCrArCrGrUrUrCrGrGrGrUrGrGrArArGrArUdCdT”, the normalised inhibition (eCFP-eYFP dual reporter) was 31.6%. Substance “sense rGrArGrGrGrCrCrCrUrGrArGrGrGrGrArCrCrCdTdT / antisense rGrGrGrUrCrCrCrCrUrCrArGrGrGrCrCrCrUrCdGdA” has a normalised inhibition (eCFP-eYFP dual reporter) of 44.6%. In the case of “sense rGrCrCrUrCrCrCrCrArCrCrCrArArGrGrGrCrUdTdT / antisense rArGrCrCrCrUrUrGrGrGrUrGrGrGrGrArGrGrCdAdG”, the normalised inhibition (eCFP-eYFP dual reporter) was 46.3%. Work on “sense rGrCrCrCrArGrCrGrGrCrArGrGrGrCrCrGrArAdTdT / antisense rUrUrCrGrGrCrCrCrUrGrCrCrGrCrUrGrGrGrCdCdC” yielded a normalised inhibition (eCFP-eYFP dual reporter) of 42%. Substance “sense rCrCrCrArArCrGrArGrGrArGrGrArCrCrUrCrAdTdT / antisense rUrGrArGrGrUrCrCrUrCrCrUrCrGrUrUrGrGrGdAdA” has a normalised inhibition (eCFP-eYFP dual reporter) of 54%.

Each substance was assayed against UBE2W (assay: reporter assay of Huesken 2005). Conditions: siRNA.
Work on “sense rGrUrGrCrGrArArCrArUrGrUrArArCrArArGrAdTdT / antisense rUrCrUrUrGrUrUrArCrArUrGrUrUrCrGrCrArCdAdT” yielded a normalised inhibition (eCFP-eYFP dual reporter) of 125%. “sense rCrUrGrGrUrGrArArArArUrArUrUrCrCrUrGrUdTdT / antisense rArCrArGrGrArArUrArUrUrUrUrCrArCrCrArGdTdA” gave a normalised inhibition (eCFP-eYFP dual reporter) of 108%. In the case of “sense rArUrGrUrGrCrGrArArCrArUrGrUrArArCrArAdTdT / antisense rUrUrGrUrUrArCrArUrGrUrUrCrGrCrArCrArUdAdA”, the normalised inhibition (eCFP-eYFP dual reporter) was 88.7%. “sense rArUrCrUrGrUrUrUrArUrCrCrArUrUrCrUrArAdTdT / antisense rUrUrArGrArArUrGrGrArUrArArArCrArGrArUdAdT” gave a normalised inhibition (eCFP-eYFP dual reporter) of 96.6%. In the case of “sense rUrUrCrCrUrGrUrUrCrArUrCrCrUrCrArUrGrUdTdT / antisense rArCrArUrGrArGrGrArUrGrArArCrArGrGrArAdTdA”, the normalised inhibition (eCFP-eYFP dual reporter) was 73%. Substance “sense rArCrArGrUrGrGrArUrUrGrUrArGrArCrArUrGdTdT / antisense rCrArUrGrUrCrUrArCrArArUrCrCrArCrUrGrUdGdT” has a normalised inhibition (eCFP-eYFP dual reporter) of 110%. In the case of “sense rArArUrUrUrCrArArCrUrUrCrUrArUrUrUrArAdTdT / antisense rUrUrArArArUrArGrArArGrUrUrGrArArArUrUdTdT”, the normalised inhibition (eCFP-eYFP dual reporter) was 97.5%. “sense rUrArUrCrUrGrUrUrUrArUrCrCrArUrUrCrUrAdTdT / antisense rUrArGrArArUrGrGrArUrArArArCrArGrArUrAdTdG” was tested, and the normalised inhibition (eCFP-eYFP dual reporter) was 85.9%. In the case of “sense rArGrArArGrArCrUrGrGrUrCrCrCrCrArGrCrGdTdT / antisense rCrGrCrUrGrGrGrGrArCrCrArGrUrCrUrUrCrUdGdT”, the normalised inhibition (eCFP-eYFP dual reporter) was 88.4%. Substance “sense rArGrArArUrCrCrArArArGrArArArArCrArArAdTdT / antisense rUrUrUrGrUrUrUrUrCrUrUrUrGrGrArUrUrCrUdTdG” has a normalised inhibition (eCFP-eYFP dual reporter) of 106%. “sense rUrUrArArArUrUrUrArGrUrArGrUrCrGrArUrAdTdT / antisense rUrArUrCrGrArCrUrArCrUrArArArUrUrUrArAdAdT” showed a normalised inhibition (eCFP-eYFP dual reporter) of 79.9%. “sense rCrArUrUrArUrUrArGrCrArUrGrCrUrUrUrCrCdTdT / antisense rGrGrArArArGrCrArUrGrCrUrArArUrArArUrGdCdT” showed a normalised inhibition (eCFP-eYFP dual reporter) of 93.2%. With “sense rArGrArGrUrGrUrUrCrArArArArUrUrCrArArUdTdT / antisense rArUrUrGrArArUrUrUrUrGrArArCrArCrUrCrUdTdC” the normalised inhibition (eCFP-eYFP dual reporter) was 109%. “sense rGrUrUrCrArUrCrCrUrCrArUrGrUrUrUrArUrAdTdT / antisense rUrArUrArArArCrArUrGrArGrGrArUrGrArArCdAdG” showed a normalised inhibition (eCFP-eYFP dual reporter) of 105%. For “sense rUrCrGrArUrArUrCrCrUrUrUrUrGrArCrUrCrUdTdT / antisense rArGrArGrUrCrArArArArGrGrArUrArUrCrGrAdCdT”, the normalised inhibition (eCFP-eYFP dual reporter) was 74.7%. “sense rUrGrGrArArUrGrArCrCrUrUrArArArUrGrArGdTdT / antisense rCrUrCrArUrUrUrArArGrGrUrCrArUrUrCrCrAdGdG” showed a normalised inhibition (eCFP-eYFP dual reporter) of 96.4%. “sense rGrArCrCrArCrCrGrGrArUrArArUrUrCrUrUrUdTdT / antisense rArArArGrArArUrUrArUrCrCrGrGrUrGrGrUrCdGdT” showed a normalised inhibition (eCFP-eYFP dual reporter) of 96.4%. “sense rUrUrUrArArArUrUrUrArGrUrArGrUrCrGrArUdTdT / antisense rArUrCrGrArCrUrArCrUrArArArUrUrUrArArAdTdA” gave a normalised inhibition (eCFP-eYFP dual reporter) of 88%. For “sense rUrArGrArCrArUrGrGrArArGrGrUrGrCrArCrCdTdT / antisense rGrGrUrGrCrArCrCrUrUrCrCrArUrGrUrCrUrAdCdA”, the normalised inhibition (eCFP-eYFP dual reporter) was 38.9%.
